Article PMC9317966, “Structure-function analysis of the AMPK activator SC4 and identification of a potent pan AMPK activator” (Biochemical Journal, 2022)

What was measured:
[1] = system: C2C12 myoblasts; experiment: C2C12 oxygen consumption rate (Seahorse), mitochondrial function; format: cell-based, Murine; details: for basal respiration, ATP production, maximal respiration, spare respiratory capacity, non-mitochondrial oxygen consumption and coupling efficiency: 1 h
Protocol: Murine C2C12 myoblasts were plated at 1 × 10^4 cells/well into Agilent Seahorse XFe24 Cell Culture Microplates in DMEM (life Technologies, Australia) containing 10% (v/v) fetal calf serum, 1% L-glutamine (v/v), and 1% (v/v) antibiotic solution (100 unit/ml penicillin/streptomycin) at 37°C in an atmosphere of 5% CO2. The next day, cells were switched to Seahorse basal assay media (Agilent, cat#: 102353-100; 48.5 ml) containing Glutamax (500 µl of 100×; Gibco, cat#35050), D-glucose (Sigma–Aldrich cat#: G8769) and sodium pyruvate (100×; Gibco cat#: 11360-070) at pH 7.4. MK-8722 at varying doses (0, 1, 10 µM) was incubated with myotubes 1 h prior to experiment, and the assay performed by titrating oligomycin (2 µM), FCCP (2 µM), and rotenone (2 µM) plus antimycin A (2 µM) as indicated. A Seahorse XFe24 Flux Analyzer (Seahorse Biosciences) was used to measure Oxygen Consumption Rate (OCR) at three time points during basal respiration and after each injection. Cells were lysed in equal volume (20 µl) and OCR measurements were normalised to total protein determined by polyacrylamide electrophoresis (5 µl lysate/well) and stain-free imaging.
Lysates were assessed for phosphorylation of AMPKα-Thr172 by immunoblot. n = 3, data presented as mean T172 phosphorylation (arbitrary units) ± SEM. Statistical significance vs. respective vehicle treatment was performed using unpaired, two-tailed Student’s t-test. **** P < 0.0001 indicates significant increase in a-Thr172 phosphorylation relative to vehicle treated WT γ1AMPK. Representative immunoblots are shown. (B) C2C12 myoblast oxygen consumption rate following treatment of MK-8722 (0, 1, 10 µM) for 1 h and titration of specific respiration modulators. (C-I) Parameters of mitochondrial function. n = 6-7, data presented as mean oxygen consumption rate ± SEM. […] (J) Lysates were assessed for total protein content following the respiration assay.

[2] = system: PC3 cells; experiment: Immunoblot of AMPK signalling in PC3 cells; format: cell-based; details: PC3, 2.5 µM, 1 h
Protocol: To evaluate the efficacy of MSG011 in cellulo, we incubated mouse primary hepatocytes with 2.5 µM MSG011 for 60 min and tracked changes in phosphorylation of AMPK α-Thr172 (marker of activation) and the AMPK substrate acetyl-CoA carboxylase (ACC) Ser79 (AMPK signalling marker).
HEK293T/17, HEK293T, COS7, HeLa and PC3 cells (ATCC) were maintained in Dulbecco's Modified Eagle's medium (DMEM; Sigma–Aldrich) supplemented with 10% fetal bovine serum (FBS; Assay Matrix) at 37°C and 5% CO2. Primary hepatocytes from wild type mice were prepared using the collagenase perfusion method and cultured as described previously. Cultures were incubated with fresh DMEM (no FBS) for 2 h prior to 1 h treatment with MSG011 (dissolved in DMSO) or phenformin (dissolved in H2O). Adherent HEK293T/17 cells at ∼50% confluency were triply transfected with AMPK α1 (pcDNA3.1 vector), β1 (COOH-terminal MYC fusion, pcDNA3.1 vector) and WT γ1 or γ1-R299G mutant (NH2-terminal HA fusion, pMT2 vector) in the presence of FuGENE HD transfection reagent (Promega) as per the manufacturers protocol. […]
All samples were separated on 12% SDS–PAGE gels and transferred to an Immobilon-FL PVDF membrane (Merck Millipore). […] Immunoblots were visualised on the Odyssey Infrared Imaging System (LI-COR Biosciences) and immunoreactive bands analysed and quantified using Image Studio Software (LI-COR Biosciences).

SMILES | cell viability by total protein stain ([1]; 0, 1, 10 µM, after respiration assay) | basal respiration, ATP production, maximal respiration, spare respiratory capacity, non-mitochondrial oxygen consumption and coupling efficiency ([1]; 1 µM) | basal respiration, ATP production, maximal respiration, spare respiratory capacity, non-mitochondrial oxygen consumption and coupling efficiency ([1]; 10 µM) | AMPK signalling (phosphorylation of ACC-Ser79 and raptor-Ser792) [2] | α-Thr172 phosphorylation [2]
O[C@@H]1CO[C@H]2[C@@H]1OC[C@H]2Oc1nc2nc(-c3ccc(-c4ccccc4)cc3)c(Cl)cc2[nH]1 [MK-8722, reference compound] | not due to loss of cell viability | not | significantly impaired | – | –
CC(=O)NC1CC=C(c2ccc(-c3nc4nc(Oc5ccc(C)c(C(=O)O)c5)[nH]c4cc3Cl)cc2)CC1 (centres unmarked) [MSG011, 5-((5-(4′-Acetamido-2′,3′,4′,5′-tetrahydro-[1,1′-biphenyl]-4-yl)-6-chloro-1H-imidazo[4,5-b]pyridin-2-yl)oxy)-2-methylbenzoic acid] | – | – | – | significantly activated AMPK | independent of changes to α-Thr172 phosphorylation
